Test results: patent publication US20100160454A1, “ANTIMICROBIAL AGENTS, COMPOSITIONS AND PRODUCTS CONTAINING THE SAME, AND METHODS OF USING THE COMPOSITIONS AND PRODUCTS” (Eastman Chemical Company, priority 2008, published 2010)

Legend:
Test in all cases: Microbiological challenge testing in BPW broth, graded subculture counts
Format in all cases: cell-based
[1] = tested on: Staphylococcus epidermidis ATCC 12228
Protocol: (§1) The microorganisms in the table below were used in challenge tests. They were either ATCC (American Type Culture Collection) or “wild type” as indicated. Wild type organisms were problematic organisms previously isolated from chemical products.
(§2) All of the microorganisms were grown in Tryptose Soy Broth (TSB), DIFCO™ available from Becton, Dickinson and Company, containing 1% dextrose. Candida albicans and Aspergillus niger, were incubated at 22° C.+/−2° C. for at least 96 hours. All bacteria were incubated at 35° C.+/−2° C. in a humidified incubator for at least 96 hours.
(§3) The following procedure was followed to determine the amount of each challenge material (inoculum broth) needed to produce a 10^8 CFU/mL challenge, which is equivalent to a final test-sample microbial concentration of 10^5 to 10^6 CFU/mL (CFU=colony forming units).
(§4) Using a sterile pipette, 1 mL of the growth from each TSB culture was transferred into tubes of 9 mL buffered water (pH 7.2 phosphate buffer) and mixed thoroughly. This was repeated to make serial 1:10 dilutions. Then, 0.1 mL of each sample and dilution was inoculated onto agar plates to produce the equivalent of a further 1:10 dilution. (C. albicans and A. niger were inoculated onto SABD and bacteria were inoculated onto Plate Count Agar (PCA), DIFCO™ available from Becton, Dickinson and Company.) (The normal volume plated for most samples was 0.1 mL. Some samples that could be very low in micro-organisms (high dilutions) were plated using 0.5 mL of inoculum, in order to produce reproducible counts.) The samples were distributed on the plates using the spread-plate technique. The spread-plate technique is carried out by spreading the sample over the entire plate surface using a sterile spreading rod while rotating the plate with a rotary auto-plater. After the inoculum was absorbed completely by the agar, each plate was inverted and incubated (fungi at 22° C.+/−2° C. and bacteria at 35° C.+/−2° C.).
(§5) After incubation for at least 48 hours, colonies that had developed on the agar plates were counted (CFU) and recorded with the corresponding dilution. If counting had to be delayed temporarily, plates were refrigerated, preferably no more than 24 hours, until they could be counted. The number of CFU/mL was determined by multiplying the plate count by the dilution factor of the plate counted.
(§6) Turbidity in Nepholemetric Turbidity Units (NTU) was measured for each serial dilution using the HF-Micro 100 Model Turbidimeter. For each microorganism, the plate counts were compared to the turbidity readings.
(§7) Control substrates (“broth alone”) were prepared for each microorganism separately in triplicate by adding 13.5 mL of Buffered Peptone Water broth (BPW) containing 1% dextrose to each 20-mL glass tube, then adding 1.5 mL challenge material to produce a final concentration at time zero of 10^5 to 10^6 CFU/mL and a total volume of 15 mL.
(§8) Test sample substrates were prepared containing each test material listed below at the concentrations shown for challenge testing with each microorganism separately. Sample substrates were prepared in triplicate, except the substrates containing butoxyethanol which were prepared in duplicate. Substrates were prepared by adding BPW containing 1% dextrose to each 20-mL glass tube, then adding the test material in the amount appropriate to achieve the desired weight/volume percent and to achieve a total volume of BPW plus dextrose plus test material of 13.5 mL. Then 1.5 mL challenge material was added to produce a final concentration at time zero of 10^5 to 10^6 CFU/mL and a total test sample substrate volume of 15 mL.

[2] = tested on: Pseudomonas aeruginosa Wild type; details: P. aeruginosa
Protocol: as §1, §2, §3, §4, §5, §6, §7, §8

[3] = tested on: Staphylococcus aureus ATCC 25923; details: S. aureus
Protocol: as §1, §2, §3, §4, §5, §6, §7, §8

[4] = tested on: Aeromonas sp. Wild type
Protocol: as §1, §2, §3, §4, §5, §6, §7, §8

OCC1CCC(CO)CC1 (stereo not drawn) [1,4-CHDM, 1,4-cyclohexanedimethanol]
S. epidermidis growth grade, 3 day ([1]; 2.5% weight/volume): 0.7
S. epidermidis growth grade, 13 day ([1]; 2.5% weight/volume): 0
S. epidermidis growth grade, 30 day ([1]; 2.5% weight/volume): 0
S. epidermidis growth grade, 3 day ([1]; 5.0% weight/volume): 0
S. epidermidis growth grade, 13 day ([1]; 5.0% weight/volume): 0
S. epidermidis growth grade, 30 day ([1]; 5.0% weight/volume): 0
Grade ([2]; 0.5% (wt/vol), 3 day): 4 (1000 to 10,000 colonies countable (thus 10,000 CFU/mL to 100,000 CFU/mL))
Grade ([2]; 0.5% (wt/vol), 13 day): 4 (1000 to 10,000 colonies countable (thus 10,000 CFU/mL to 100,000 CFU/mL))
Grade ([2]; 0.5% (wt/vol), 30 day): 4 (1000 to 10,000 colonies countable (thus 10,000 CFU/mL to 100,000 CFU/mL))
Grade ([2]; 1.25% (wt/vol), 3 day): 4 (1000 to 10,000 colonies countable (thus 10,000 CFU/mL to 100,000 CFU/mL))
Grade ([2]; 1.25% (wt/vol), 13 day): 3 (100 to 1000 colonies (thus 1000 to 10,000 CFU/mL))
Grade ([2]; 1.25% (wt/vol), 30 day): 4 (1000 to 10,000 colonies countable (thus 10,000 CFU/mL to 100,000 CFU/mL))
Grade ([2]; 2.5% (wt/vol), 3 day): 3 (100 to 1000 colonies (thus 1000 to 10,000 CFU/mL))
Grade ([2]; 2.5% (wt/vol), 13 day): 2 (52 to 100 colonies counted (thus 520 to 1000 CFU/mL))
Grade ([2]; 2.5% (wt/vol), 30 day): 0
Grade ([2]; 5.0% (wt/vol), 3 day): 0
Grade ([2]; 5.0% (wt/vol), 13 day): 0
Grade ([2]; 5.0% (wt/vol), 30 day): 0
Grade ([3]; 0.5% (wt/vol), 3 day): 4 (1000 to 10,000 colonies countable (thus 10,000 CFU/mL to 100,000 CFU/mL))
Grade ([3]; 0.5% (wt/vol), 14 day): 4 (1000 to 10,000 colonies countable (thus 10,000 CFU/mL to 100,000 CFU/mL))
Grade ([3]; 0.5% (wt/vol), 30 day): 4 (1000 to 10,000 colonies countable (thus 10,000 CFU/mL to 100,000 CFU/mL))
Grade ([3]; 1.25% (wt/vol), 3 day): 3 (100 to 1000 colonies (thus 1000 to 10,000 CFU/mL))
Grade ([3]; 1.25% (wt/vol), 14 day): 2.7
Grade ([3]; 1.25% (wt/vol), 30 day): 4 (1000 to 10,000 colonies countable (thus 10,000 CFU/mL to 100,000 CFU/mL))
Grade ([3]; 2.5% (wt/vol), 3 day): 1.7
Grade ([3]; 2.5% (wt/vol), 14 day): 1 (0 to 51 colonies counted (thus 10 to 510 CFU/mL based on 0.1-mL sample))
Grade ([3]; 2.5% (wt/vol), 30 day): 0
Grade ([3]; 5.0% (wt/vol), 3 day): 0
Grade ([3]; 5.0% (wt/vol), 14 day): 0
Grade ([3]; 5.0% (wt/vol), 30 day): 0
Aeromonas sp growth grade, 3 day ([4]; 0.5% weight/volume): 5 (More than 10,000 colonies estimated (thus more than 100,000 CFU/mL))
Aeromonas sp growth grade, 14 day ([4]; 0.5% weight/volume): 4 (1000 to 10,000 colonies countable (thus 10,000 CFU/mL to 100,000 CFU/mL))
Aeromonas sp growth grade, 30 day ([4]; 0.5% weight/volume): 4 (1000 to 10,000 colonies countable (thus 10,000 CFU/mL to 100,000 CFU/mL))
Aeromonas sp growth grade, 3 day ([4]; 1.25% weight/volume): 4 (1000 to 10,000 colonies countable (thus 10,000 CFU/mL to 100,000 CFU/mL))
Aeromonas sp growth grade, 14 day ([4]; 1.25% weight/volume): 3 (100 to 1000 colonies (thus 1000 to 10,000 CFU/mL))
Aeromonas sp growth grade, 30 day ([4]; 1.25% weight/volume): 2 (52 to 100 colonies counted (thus 520 to 1000 CFU/mL))
Aeromonas sp growth grade, 3 day ([4]; 2.5% weight/volume): 3 (100 to 1000 colonies (thus 1000 to 10,000 CFU/mL))
Aeromonas sp growth grade, 14 day ([4]; 2.5% weight/volume): 1 (0 to 51 colonies counted (thus 10 to 510 CFU/mL based on 0.1-mL sample))
Aeromonas sp growth grade, 30 day ([4]; 2.5% weight/volume): 0
Aeromonas sp growth grade, 3 day ([4]; 5.0% weight/volume): 0
Aeromonas sp growth grade, 14 day ([4]; 5.0% weight/volume): 0
Aeromonas sp growth grade, 30 day ([4]; 5.0% weight/volume): 0
